# Experimental data taken from patent US20080221330A1, “Mutilin-Derivative Substituted at Position 12” (priority 2004, published 2008).
# Structures can show the parent of a compound that is named as a salt.
# Assays:
# S. aureus 209P = assay: Minimum inhibitory concentration (MIC) by NCCLS agar dilution technique; assay type: cell-based
# Experimental: (§1) The minimum inhibitory concentration (MIC) was determined for each compound by NCCLS agar dilution technique (Methods for dilution antimicrobial susceptibility tests for bacteria that grow aerobically; approved standard-sixth edition. […] The results are shown in Table below and indicate that the compounds of the present invention have high antimicrobial activity.
# S. pneumoniae IID 553 = assay: as above; assay type: cell-based
# Experimental: as §1
SMILES,"minimum inhibitory concentration (MIC), in vitro antimicrobial activity (S. aureus 209P)","minimum inhibitory concentration (MIC), in vitro antimicrobial activity (S. pneumoniae IID 553)"
"C/C=C/C[C@]1(C)C[C@@H](OC(=O)NC(=O)[C@H]2CN3CC[C@@H]2C3)[C@@]2(C)C3C(=O)CCC3(CC[C@H]2C)[C@@H](C)[C@@H]1O (stereo partly drawn) [Example 20, 14-{(3R,4S)-1-azabicyclo[2.2.1]heptane-3-carbonyl}carbamoyl-12-[(E)-2-butene-4-yl]-12-desethenylmutilin]",0.06,0.5
"C=C[C@]1(C)C[C@@H](OC(=O)CSCCN(CC)CC)[C@]2(C)[C@H](C)CC[C@]3(CCC(=O)[C@H]32)[C@@H](C)[C@@H]1O [tiamulin, reference compound]",0.06-0.125,1-2
"CCC[C@]1(C)C[C@@H](OC(=O)NC(=O)[C@H]2CN3CC[C@@H]2C3)[C@@]2(C)C3C(=O)CCC3(CC[C@H]2C)[C@@H](C)[C@@H]1O (stereo partly drawn) [Example 17, 14-{(3R,4S)-1-azabicyclo[2.2.1]heptane-3-carbonyl}carbamoyl-12-desethenyl-12-propylmutilin hydrochloride]",0.125,2
"CCCC[C@]1(C)C[C@@H](OC(=O)NC(=O)[C@H]2CN3CC[C@@H]2C3)[C@@]2(C)C3C(=O)CCC3(CC[C@H]2C)[C@@H](C)[C@@H]1O (stereo partly drawn) [Example 18, 12-butyl-14-{(3R,4S)-1-azabicyclo[2.2.1]heptane-3-carbonyl}car bamoyl-12-desethenylmutilin]",0.125,2
"C=CCC1(C)CC(OC(=O)NC(=O)C2CN3CCC2C3)C2(C)C(C)CCC3(CCC(=O)C32)C(C)C1O.Cl [Example 4, 14-{(3R,4S)-1-azabicyclo[2.2.1]heptane-3-carbonyl}carbamoyl-12-desethenyl-12-(1-propene-3-yl)mutilin hydrochloride]",0.125,0.5
"CC1C(O)C(C)(C)CC(OC(=O)NC(=O)C2CN3CCC2C3)C2(C)C(C)CCC13CCC(=O)C32.Cl [Example 2, 14-{(3R,4S)-1-azabicyclo[2.2.1]heptane-3-carbonyl}carbamoyl-12-desethenyl-12-methylmutilin hydrochloride]",0.125,1
